Laboratory results taken from ChEMBL document CHEMBL3734705, “Synthesis and in vitro cytotoxicity of novel C-12 substituted-14-deoxy-andrographolide derivatives as potent anti-cancer agents” (2015).

Assays:
SR = assay: Cytotoxicity against human SR cells assessed as growth level at 10 uM after 48 hrs by SRB assay; assay type: functional
[1] = Cytotoxicity against human HOP92 cells assessed as growth level at 10 uM after 48 hrs by SRB assay; assay type: functional, HOP-92
NCI-H322M = assay: Cytotoxicity against human NCI-H322M cells assessed as growth level at 10 uM after 48 hrs by SRB assay; assay type: functional
NCI-H522 = assay: Cytotoxicity against human NCI-H522 cells assessed as growth level at 10 uM after 48 hrs by SRB assay; assay type: functional
[2] = Cytotoxicity against human HCT15 cells assessed as growth level at 10 uM after 48 hrs by SRB assay; assay type: functional, HCT-15
[3] = Cytotoxicity against human SF268 cells assessed as growth level at 10 uM after 48 hrs by SRB assay; assay type: functional, SF-268
[4] = Cytotoxicity against human SF539 cells assessed as growth level at 10 uM after 48 hrs by SRB assay; assay type: functional, SF-539
M14 = assay: Cytotoxicity against human M14 cells assessed as growth level at 10 uM after 48 hrs by SRB assay; assay type: functional
MDA-MB-435 [5] = assay: Cytotoxicity against human MDA-MB-435 cells assessed as growth level at 10 uM after 48 hrs by SRB assay; assay type: functional
[6] = Cytotoxicity against human UACC62 cells assessed as growth level at 10 uM after 48 hrs by SRB assay; assay type: functional, UACC-62
[7] = Cytotoxicity against human OVCAR4 cells assessed as growth level at 10 uM after 48 hrs by SRB assay; assay type: functional, OVCAR-4
[8] = Cytotoxicity against human Caki1 cells assessed as growth level at 10 uM after 48 hrs by SRB assay; assay type: functional, CAKI-1
[9] = Cytotoxicity against human DU145 cells assessed as growth level at 10 uM after 48 hrs by SRB assay; assay type: functional, DU-145
[10] = Cytotoxicity against human BT549 cells assessed as growth level at 10 uM after 48 hrs by SRB assay; assay type: functional, BT-549
MDA-MB-468 [11] = assay: Cytotoxicity against human MDA-MB-468 cells assessed as growth level at 10 uM after 48 hrs by SRB assay; assay type: functional
K562 = assay: Cytotoxicity against human K562 cells assessed as growth inhibition at 10 uM after 48 hrs by SRB assay; assay type: functional; conditions: K562, 48 h, read-out: GI
[12] = Cytotoxicity against human RPMI8226 cells assessed as growth inhibition at 10 uM after 48 hrs by SRB assay; assay type: functional; conditions: RPMI-8226, 48 h, read-out: GI
NCI-H23 = assay: Cytotoxicity against human NCI-H23 cells assessed as growth inhibition at 10 uM after 48 hrs by SRB assay; assay type: functional; conditions: NCI-H23, 48 h, read-out: GI
[13] = Cytotoxicity against human HCC2998 cells assessed as growth inhibition at 10 uM after 48 hrs by SRB assay; assay type: functional; conditions: HCC 2998, 48 h, read-out: GI
[14] = Cytotoxicity against human SF295 cells assessed as growth inhibition at 10 uM after 48 hrs by SRB assay; assay type: functional; conditions: SF-295, 48 h, read-out: GI
MDA-MB-435 [15] = assay: Cytotoxicity against human MDA-MB-435 cells assessed as growth inhibition at 10 uM after 48 hrs by SRB assay; assay type: functional; conditions: MDA-MB-435, 48 h, read-out: GI
SK-MEL-28 = assay: Cytotoxicity against human SK-MEL-28 cells assessed as growth inhibition at 10 uM after 48 hrs by SRB assay; assay type: functional; conditions: SK-MEL-28, 48 h, read-out: GI
[16] = Cytotoxicity against human UACC257 cells assessed as growth inhibition at 10 uM after 48 hrs by SRB assay; assay type: functional; conditions: UACC-257, 48 h, read-out: GI
[17] = Cytotoxicity against human OVCAR3 cells assessed as growth inhibition at 10 uM after 48 hrs by SRB assay; assay type: functional; conditions: OVCAR-3, 48 h, read-out: GI
SN12C = assay: Cytotoxicity against human SN12C cells assessed as growth inhibition at 10 uM after 48 hrs by SRB assay; assay type: functional; conditions: read-out: GI
[18] = Cytotoxicity against human DU145 cells assessed as growth inhibition at 10 uM after 48 hrs by SRB assay; assay type: functional; conditions: DU-145, 48 h, read-out: GI
T47D = assay: Cytotoxicity against human T47D cells assessed as growth inhibition at 10 uM after 48 hrs by SRB assay; assay type: functional; conditions: read-out: GI
MDA-MB-468 [19] = assay: Cytotoxicity against human MDA-MB-468 cells assessed as growth inhibition at 10 uM after 48 hrs by SRB assay; assay type: functional; conditions: MDA-MB-468, 48 h, read-out: GI
[20] = Cytotoxicity against human HL-60(TB) cells assessed as growth level at 10 uM after 48 hrs by SRB assay; assay type: functional

Row | SMILES | Activity (SR) [%] | Activity [1] [%] | Activity (NCI-H322M) [%] | Activity [2] [%] | Activity [3] [%] | Activity [4] [%] | Activity (M14) [%] | Activity (MDA-MB-435 [5]) [%] | Activity [6] [%] | Activity [7] [%] | Activity [8] [%] | Activity [9] [%] | Activity [10] [%] | Activity (MDA-MB-468 [11]) [%] | inhibition of growth at 10 µM (K562) [%] | inhibition of growth at 10 µM [12] [%] | inhibition of growth at 10 µM (NCI-H23) [%] | inhibition of growth at 10 µM [13] [%] | inhibition of growth at 10 µM [14] [%] | inhibition of growth at 10 µM (MDA-MB-435 [15]) [%] | also measured
1 | C=C1CC[C@@H]2[C@](C)(COC(C)=O)[C@H](OC(C)=O)CC[C@@]2(C)[C@@H]1CC(NC1CCCC1)C1=CCOC1=O (some centres not stated) | 19.62 | 25.23 | 101.16 | 67.03 | 76.66 | 89.44 | 79.06 | 75.73 | 65.59 | 58.35 | 60.7 | 91.96 | 55.62 | 34.72 | 51.7 | 62.5 | 37.5 | 9.65 | 9.61 | 24.3 | Activity (NCI-H522): 45.56%; inhibition of growth at 10 µM (SK-MEL-28): 8.95%; inhibition of growth at 10 µM [16]: 61.6%; inhibition of growth at 10 µM [17]: 31%; inhibition of growth at 10 µM (SN12C): 21.5%; inhibition of growth at 10 µM [18]: 8.04%; inhibition of growth at 10 µM (T47D): 49.1%; inhibition of growth at 10 µM (MDA-MB-468 [19]): 65.3%; Activity [20]: 42.67%
2 | C=C1CC[C@@H]2[C@](C)(COC(C)=O)[C@H](OC(C)=O)CC[C@@]2(C)[C@@H]1CC(NCc1ccccc1)C1=CCOC1=O (mixture of isomers) | 20.89 | 41.66 | 77.01 | 40.99 | 62.15 | 79.48 | 42.07 | 27.9 | 38.81 | 35.88 | 49.62 | 67.16 | 28.11 | 22.86 | 75.3 | 96.8 | 42.6 | 6.31 | 36.1 | 72.1 | inhibition of growth at 10 µM (SK-MEL-28): 31.4%; inhibition of growth at 10 µM [16]: 67.2%; inhibition of growth at 10 µM [17]: 68.2%; inhibition of growth at 10 µM (SN12C): 41.8%; inhibition of growth at 10 µM [18]: 32.8%; inhibition of growth at 10 µM (T47D): 85.8%; inhibition of growth at 10 µM (MDA-MB-468 [19]): 77.1%; Activity [20]: -9.93%
